From patent US7358276B2, “2-Oxo-1-pyrrolidine derivatives, processes for preparing them and their uses” (UCB, S.A., priority 2000, dated 2008)

Assays:
[1] = test system: audiogenic seizures in sound-susceptible mice; assay: Animal model of sound-susceptible mice (audiogenic seizures); assay type: in vivo; details: intraperitoneally 60 minutes before induction of audiogenic seizures; doses given in mol/kg
Source text: The activity of the compounds of formula I, or their pharmaceutically acceptable salts, as anticonvulsants can be determined in the audiogenic seizures model. The objective of this test is to evaluate the anticonvulsant potential of a compound by means of audiogenic seizures induced in sound-susceptible mice, a genetic animal model with reflex seizures. In this model of primary generalised epilepsy, seizures are evoked without electrical or chemical stimulation and the seizure types are, at least in part, similar in their clinical phenomenology to seizures occurring in man (Löscher W. & Schmidt D., Epilepsy Res. (1998), 2, p. 145-181; Buchhalter J. R., Epilepsia (1993), 34, S31-S41). Results obtained with compounds of formula I are indicative of a strong pharmacological effect.
The objective of this test is to evaluate the anticonvulsant potency of a compound in sound-susceptible mice, a genetic animal model with reflex seizures. In this model of primary generalised epilepsy, seizures are evoked without electrical or chemical stimulation and the seizure types are, at least in part, similar in their clinical phenomenology to seizures occuring in man (Löscher W. & Schmidt D., Epilepsy Res. (1998), 2, 145-181; Buchhalter J. R., Epilepsia (1993), 34, S31-S41).
Male or female genetically sound-sensitive mice (14-28 g; N=10), derived from a DBA strain originally selected by Dr. Lehmann of the Laboratory of Acoustic Physiology (Paris) and bred in the UCB Pharma Sector husbandry unit since 1978, are used. The experimental design consisted of several groups, one group receiving the vehicle control and the other groups different doses of the test-compound. The compounds are administered intraperitoneally 60 minutes before the induction of audiogenic seizures.
For testing, the animals are placed in small cages, one mouse per cage, in a sound-attenuated chamber. After a period of orientation of 30 seconds, the acoustic stimulus (90 dB, 10-20 kHz) is delivered for 30 seconds via loudspeakers positioned above each cage. During this interval, the mice are observed and the presence of the 3 phases of the seizure activity namely wild running, clonic and tonic convulsions, is recorded. The proportion of mice protected against wild running, clonic and tonic convulsions, respectively, is calculated.
For active compounds, an ED50 value, i.e. the dose producing 50% protection relative to the control group, together with 95% confidence limits, was calculated using a Probit Analysis (SAS/STAT® Software, version 6.09, PROBIT procedure) of the proportions of protected mice for each of the 3 phases of the seizure activity.

[2] = biological target: T1, Levetiracetam Binding Site (LBS), rat cerebral cortex membranes (Rattus norvegicus, UniProt Q02563); assay: LBS binding assay (competitive binding, [3H]-2-[4-(3-azidophenyl)-2-oxo-1-pyrrolidinyl]butanamide); details: 4° C., 120 min
T1 construct: The crude membrane pellet obtained is resuspended in 50 mmol/l Tris-HCl (pH 7.4); from tissue; host or cells: rat cerebral cortex crude membranes (male Sprague-Dawley)
T1 sequence (Q02563 whole entry): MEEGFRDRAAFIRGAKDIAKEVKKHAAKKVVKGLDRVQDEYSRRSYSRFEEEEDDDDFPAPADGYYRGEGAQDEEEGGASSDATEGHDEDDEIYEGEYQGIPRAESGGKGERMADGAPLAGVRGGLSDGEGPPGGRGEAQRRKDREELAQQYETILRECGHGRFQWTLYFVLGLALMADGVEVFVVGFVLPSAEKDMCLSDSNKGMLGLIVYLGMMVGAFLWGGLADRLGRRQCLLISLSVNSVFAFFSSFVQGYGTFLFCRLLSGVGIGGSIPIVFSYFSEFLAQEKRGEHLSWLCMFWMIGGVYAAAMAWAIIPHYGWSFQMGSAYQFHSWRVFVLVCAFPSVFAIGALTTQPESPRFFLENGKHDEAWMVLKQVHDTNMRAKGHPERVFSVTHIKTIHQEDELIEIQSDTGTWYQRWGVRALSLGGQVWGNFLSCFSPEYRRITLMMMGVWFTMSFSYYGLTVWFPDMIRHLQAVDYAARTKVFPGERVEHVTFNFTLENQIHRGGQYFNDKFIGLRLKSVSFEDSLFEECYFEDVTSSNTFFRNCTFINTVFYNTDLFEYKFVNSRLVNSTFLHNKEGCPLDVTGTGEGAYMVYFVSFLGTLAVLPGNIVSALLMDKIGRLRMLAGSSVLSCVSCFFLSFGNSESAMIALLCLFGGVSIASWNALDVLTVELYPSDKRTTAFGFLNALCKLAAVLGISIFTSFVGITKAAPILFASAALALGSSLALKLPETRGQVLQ

Row | Structure (SMILES) | ED50 (dose producing 50% protection against audiogenic seizures) [1] | pKi (affinity for the levetiracetam binding site) [2] | melting point
1 | CCC(C(N)=O)N1CC(c2nccs2)CC1=O (stereo not drawn) [Compound 64] | Particularly promising activity | Particular affinity | 94.3 °C
2 | CC[C@@H](C(N)=O)N1CC(c2cccc(Br)c2)CC1=O (stereo partly drawn) [Compound 180] | Particularly promising activity | Particular affinity | 99.6 °C
3 | CC[C@@H](C(N)=O)N1CC(CC2CC2)CC1=O (stereo partly drawn) [Compound 221] | Particularly promising activity | Particular affinity | 93.9 °C
4 | CCC(C(N)=O)N1CC(c2ccccc2Br)CC1=O (stereo not drawn) [Compound 95] | Particularly promising activity | Particular affinity | 165.4 °C
5 | CC[C@@H](C(N)=O)N1CC(CCC(F)(F)F)CC1=O (stereo partly drawn) [Compound 215] | Particularly promising activity | Particular affinity | 115.9 °C
6 | C=CCC1CC(=O)N([C@@H](CC)C(N)=O)C1 (stereo partly drawn) [Compound 228, (2S)-2-(4-allyl-2-oxo-1-pyrrolidinyl)butanamide] | Particularly promising activity | Particular affinity | 58.3 °C
7 | C=CCC1CC(=O)N([C@@H](CC)C(N)=O)C1 (stereo partly drawn) [Compound 224, (2S)-2-(4-allyl-2-oxo-1-pyrrolidinyl)butanamide] | Particularly promising activity | Particular affinity | 69.2 °C
8 | CC[C@@H](C(=O)NC)N1CC(CI)CC1=O (stereo partly drawn) [Compound 146, (2S)-2-[4-(iodomethyl)-2-oxo-1-pyrrolidinyl]-N-methylbutanamide] | Particularly promising activity | Particular affinity | 66.6 °C
9 | CCCCC1CC(=O)N(C(CC)C(N)=O)C1 (stereo not drawn) [Compound 164] | Particularly promising activity | Particular affinity | 108.8 °C
10 | CC[C@@H](C(N)=O)N1CC(CI)CC1=O (stereo partly drawn) [Compound 27] | Particularly promising activity | Particular affinity | 107.7 °C
11 | CC[C@@H](C(N)=O)N1CC(c2cccc(N=[N+]=[N-])c2)CC1=O (stereo partly drawn) [Compound 87] | Particularly promising activity | Particular affinity | 98 °C
12 | CCC(C(N)=O)N1CC(c2ccc(Cl)c(Cl)c2)CC1=O (stereo not drawn) [Compound 187] | Particularly promising activity | Particular affinity | 177.9 °C
13 | CC[C@@H](C(N)=O)N1CC(CN=[N+]=[N-])CC1=O (stereo partly drawn) [Compound 32, (2S)-2-[4-(azidomethyl)-2-oxo-1-pyrrolidinyl]butanamide] | Particularly promising activity | Particular affinity | 84.8 °C
14 | CC[C@@H](C(N)=O)N1CC(CCC(F)(F)F)CC1=O (stereo partly drawn) [Compound 214] | Particularly promising activity | Particular affinity | 120.9 °C
15 | CCCC1(C)CC(=O)N([C@@H](CC)C(N)=O)C1 (stereo partly drawn) [Compound 250] | Particularly promising activity | Particular affinity | 133.3 °C
16 | CCC(C(N)=O)N1CC(c2ccccc2F)CC1=O (stereo not drawn) [Compound 211] | Particularly promising activity | Particular affinity | 150.9 °C

Row | Structure (SMILES) | ED50 (dose producing 50% protection against audiogenic seizures) [1] | pKi (affinity for the levetiracetam binding site) [2] | melting point
17 | C=C[C@@H]1CC(=O)N([C@@H](CC)C(N)=O)C1 [Compound 92] | Particularly promising activity | Particular affinity | 79 °C
18 | C=CC1CC(=O)N(C(CC)C(N)=O)C1 (stereo not drawn) [Compound 41] | Particularly promising activity | Particular affinity | 120.5 °C
19 | C=C[C@H]1CC(=O)N([C@@H](CC)C(N)=O)C1 [Compound 93] | Particularly promising activity | Particular affinity | 68.3 °C
20 | CC[C@@H](C(N)=O)N1CC(c2cccc(N=[N+]=[N-])c2)CC1=O (single isomer, unassigned) [Compound 86] | Particularly promising activity | Particular affinity | 94.5 °C
21 | CC[C@@H](C(N)=O)N1CC(Cn2cnnn2)CC1=O (stereo partly drawn) [Compound 40, (2S)-2-[2-oxo-4-(1H-tetrazol-1-ylmethyl)-1-pyrrolidinyl]butanamide] | Particularly promising activity | Particular affinity | 82.3 °C
22 | CCC(C(N)=O)N1CC(C#CBr)CC1=O (stereo not drawn) [Compound 264] | Particularly promising activity | Particular affinity | 173.2 °C
23 | CCC(C(N)=O)N1CC(c2cccnc2)CC1=O (stereo not drawn) [Compound 96] | Particularly promising activity | Particular affinity | 104.3 °C
24 | CCC(C(N)=O)N1CC(CCCc2ccccc2)CC1=O (stereo not drawn) [Compound 197] | Particularly promising activity | Particular affinity | 92.5 °C
25 | CCC(C(N)=O)N1CC(c2ccccc2F)CC1=O (stereo not drawn) [Compound 209] | Particularly promising activity | Particular affinity | 123.7 °C
26 | CC[C@@H](C(N)=O)N1CC(c2cc(Br)cc(Br)c2)CC1=O (stereo partly drawn) [Compound 198] | Particularly promising activity | Particular affinity | 118.6 °C
27 | CC[C@@H](C(N)=O)N1CC(CI)CC1=O (stereo partly drawn) [Compound 10, (2S)-2-[4-(iodomethyl)-2-oxo-1-pyrrolidinyl]butanamide] | Particularly promising activity | Particular affinity | 91.4 °C
28 | CC[C@@H](C(N)=O)N1CC(c2ccc(N=[N+]=[N-])cc2)CC1=O (stereo partly drawn) [Compound 81] | Particularly promising activity | Particular affinity | 91.4 °C
29 | CC[C@@H](C(N)=O)N1CC(CC(C)=O)CC1=O (stereo partly drawn) [Compound 229] | Particularly promising activity | Particular affinity | 90.6 °C
30 | CCC(C(N)=O)N1CC(C=C(Br)Br)CC1=O (stereo not drawn) [Compound 33] | Particularly promising activity | Particular affinity | 134.8 °C
31 | CC[C@@H](C(N)=O)N1CC(c2cccs2)CC1=O (stereo partly drawn) [Compound 71, (2S)-2-[2-oxo-4-(2-thienyl)-1-pyrrolidinyl]butanamide] | Particularly promising activity | Particular affinity | 69.3 °C
